Source: US12433872B2, “Treatment of Acanthamoeba or Balamuthia trophozoites and/or cysts” (GEORGIA STATE UNIVERSITY RESEARCH FOUNDATION, INC., priority 2018, dated 2025)
Structures can show the parent of a compound that is named as a salt. Where two headings read alike, the source gives them in different places.

How the values were obtained:
[1] = test system: B. mandrillaris; settings: previous in vitro testing, cited from earlier work; for effect against B. mandrillaris: in words
[2] = test system: Acanthamoeba castellanii trophozoites; experiment: Activity against Acanthamoeba castellanii trophozoites; type: cell-based
[3] = test system: A549 cells; experiment: Toxicity to human A549 cells; type: cell-based
[4] = test system: Acanthamoeba castellanii (ATCC50370) cysts; experiment: Encystation drug susceptibility / excystation viability assay, 30 day recovery, A. castellanii cysts; type: cell-based; settings: ATCC50370, 720 h, read-out: A. castellanii 30 day MCC
Description: (§1) The trophozoites of Acanthamoeba were harvested by mechanical detachment and collected via centrifugation at 4000 rpm at 4° C. for 5 minutes. The trophozoites were washed in 10 mL of Neff's Encystment Media (NEM). NEM composition is 20 mM Tris-HCL [pH 8.8] (2.43 g/L), 100 mM KCL (7.46 g/L), 8 mM MgSO4 (962.96 mg/L), 0.4 mM CaCL2 58.81 mg/L) and 1 mM NaHCO3 (84.01 mg/L) (Neff et al. 1964). All reagents were bought from Sigma Aldrich. Centrifugation of the trophozoites was repeated to ensure any residual growth medium was removed. The pellet was resuspended in a final volume of 15 mL of NEM, cultured in 75 cm^2 corning tissue culture flasks and incubated vertically in a thermal shaker, shaken at 100 rpm at 37° C. for 72 hours to produce fully matured cysts. NEM was supplemented with 250 μg of penicillin/streptomycin. Fresh cysts were produced each time for any experimentation.
(§2) At 72 hours the cysts were harvested using a cell scraper and collected via centrifugation at 4000 rpm at 25° C. for 10 minutes. The cells were washed twice in 10 mL of HyClone™ water, Molecular Biology Grade, and centrifugation was repeated to ensure the removal of any residual NEM. The cell suspension was washed with 0.5% sodium dodecyl sulphate (SDS) to remove any remaining trophozoites and immature cysts. The fully mature cysts were further washed twice with 10 mL of HyClone™ water and 1% NEM, centrifugation was repeated to remove any residue of SDS. The concentration of mature cysts was determined using a haemocytometer and adjusted to 1×10^4 cysts/mL in NEM.
(§3) All test compounds were prepared as 5 mg/mL stock solutions in dimethylsulfoxide (DMSO). All compounds were diluted in NEM, serially diluted in 2-fold dilutions 6 or 11 times, yielding a screening concentration range of 1.56 μg/mL to 50 μg/mL or 48 ng/mL to 50 μg/mL with a final highest screening concentration of 1% DMSO.
(§4) Based on this, a strain specific test period and also a 30 day non-specific recovery time were considered. For the 30 day recovery period, the media was changed 5 times to ensure the contents of wells dis not evaporate and have an effect within the results of the assay.
(§5) 90 μL of 1×10^4 Cysts/ml and 10 μL of experimental compounds from the screening plates were produced according to the protocols above and combined into a Corning clear 96 well treated tissue culture plate. Control wells include cysts in non-drug treated, 1% DMSO, NEM (to be used for negative growth control), NEM Blank, PG blank and cysts in non-drug treated, 1% DMSO, PG (to excyst cells and to be used for positive growth control). The total well volume for all wells was 100 μL. The drug exposed plates were screened at 27° C. for 6 or 24 hours only. At the exposure time point the plates were centrifuged at 4000 rpm at 25° C. for 10 minutes and washed twice with phosphate-buffered saline (PBS) to remove any residual experimental compound.
(§6) Once the plate(s) underwent the Encystation drug susceptibility process, all wells except the negative growth control and NEM blank wells received PG growth medium. All plates were left to recover at 27° C. for the strain specific time period of 5, 9 or 11 days depending on the species of Acanthamoeba. At each of the strain specific time points the plates were removed from incubation and microscopically analysed (qualitatively) for the excystation process for the emergence of excysted viable trophozoites or residual cysts. The presence of excysted trophozoites indicated viable amoebae (non-cystistatic or cysticidal—no effect) and the absence of excystation was considered as cystistatic/cysticidal effects.

[5] = test system: Acanthamoeba healyi cysts; experiment: Encystation drug susceptibility / excystation viability assay, 30 day recovery, A. healyi cysts; type: cell-based; settings: 720 h, read-out: A. healyi 30 day MCC
Description: as §1, §2, §3, §4, §5, §6

[6] = test system: Acanthamoeba culbertsoni (ATCC30171) cysts; experiment: Encystation drug susceptibility / excystation viability assay, 30 day recovery, A. culbertsoni cysts; type: cell-based; settings: ATCC30171, 720 h, read-out: A. culbertsoni 30 day MCC
Description: as §1, §2, §3, §4, §5, §6

[7] = test system: Acanthamoeba cysts; experiment: 30 day cysticidal studies, species not given; type: cell-based; settings: for cysticidal activity over 30 day period: in words; for selectivity index (SI): text b496, A549 IC50 versus 30 day MCC
Description: As cells were removed during the 5× media changes for the 30 day time point at concentrations of drugs that allowed excystation, only qualitative, microscopic analysis was performed.

[8] = test system: Balamuthia mandrillaris trophozoites; experiment: Activity against Balamuthia mandrillaris trophozoites; type: cell-based; settings: Balamuthia mandrillaris, read-out: Balamuthia mandrillaris IC50
Description: Balamuthia mandrillaris trophozoites were thawed and grown in 10 ml of BM-3 medium. […] After autoclaving, complete BM-3 media was produced by the addition of 10% fetal bovine serum and 125 μg of penicillin/streptomycin antibiotics. The table describes all of the compounds and the activity against Balamuthia trophozoites compared to the activity for select Acanthamoeba trophozoites shown in Table 5.

[9] = read-out: A. cactellanii Trophozoite IC50
[10] = human A549 cells, read-out: A549 cell IC50
[11] = minimum cysticidal concentration, no recovery up to 30 days

CC[C@H]1OC(=O)[C@H](C)[C@@H](O[C@H]2C[C@@](C)(OC)[C@@H](O)[C@H](C)O2)[C@H](C)[C@@H](O[C@@H]2O[C@H](C)C[C@H](N(C)C)[C@H]2O)[C@](C)(OC)C[C@@H](C)C(=O)[C@H](C)[C@@H](O)[C@]1(C)O [clarithromycin]
effect against B. mandrillaris [1]: no effect

N=C(N)c1ccc(OCCCCCOc2ccc(C(=N)N)cc2)cc1 [pentamidine]
concentration at which most effective drug against B. mandrillaris ([1]; same value in μM): 29.38 µM | concentration at which most effective drug against B. mandrillaris [1]: 10 µg/mL

CCCCC(CC)CNC(=N)NC(=N)NCCCCCCNC(=N)NC(=N)NCC(CC)CCCC (centres unmarked) [Alexidine HCL, alexidine, reference compound]
IC50 [2, 9]: 1710 nM | IC50 [3, 10]: 1580 nM | MCC [4, 11]: 5.37 µM | MCC [5, 11]: 5.37 µM | MCC [6, 11]: 5.37 µM | cysticidal activity over 30 day period [7]: shows cysticidal activity | selectivity index (SI) [7]: 0.29

N=C(NCCCCCCNC(=N)NC(=N)Nc1ccc(Cl)cc1)NC(=N)Nc1ccc(Cl)cc1 [Chlorhexidine, chlorhexidine, reference compound]
IC50 [2, 9]: 1010 nM | IC50 [3, 10]: 3080 nM | MCC [4, 11]: 100 µM | MCC [5, 11]: 100 µM | MCC [6, 11]: 100 µM | cysticidal activity over 30 day period [7]: little cysticidal activity | selectivity index (SI) [7]: 0.03

CC[C@H]1OC(=O)[C@H](C)[C@@H](O[C@H]2C[C@@](C)(OC)[C@@H](O)[C@H](C)O2)[C@H](C)[C@@H](O[C@@H]2O[C@H](C)C[C@H](N(C)C)[C@H]2O)[C@](C)(O)C[C@@H](C)CN(C)[C@H](C)[C@@H](O)[C@]1(C)O [azithromycin]
effect against B. mandrillaris [1]: no effect

C[C@@H]1[C@H](O)[C@@H](C)/C=C/C=C/C=C/C=C/C=C/C=C/C=C/[C@H](O[C@@H]2O[C@H](C)[C@@H](O)[C@H](N)[C@@H]2O)C[C@@H]2O[C@](O)(C[C@@H](O)C[C@@H](O)[C@H](O)CC[C@@H](O)C[C@@H](O)CC(=O)O[C@H]1C)C[C@H](O)[C@H]2C(=O)O [amphotericin B]
effect against B. mandrillaris [1]: marginal effects

CC(C)NC(=N)c1ccc2nc(-c3ccc(Oc4ccc(-c5nc6ccc(C(=N)NC(C)C)cc6[nH]5)c(Br)c4)cc3Br)[nH]c2c1 [Compound D, 2,2′-(Oxybis(2-bromo-4,1-phenylene))bis(N-isopropyl-1H-benzo[d]imidazole-6-carboximidamide)]
IC50 [2, 9]: 310 nM | IC50 ([2]; read-out: Acanthamoeba castellanii IC50): 310 nM | IC50 ([3]; Homo sapiens, A549, read-out: A549 cell IC50): 4170 nM | MCC [4]: 3.4 µM | MCC [5]: 3.4 µM | MCC [6]: 1.27 µM | IC50 [8]: 100 nM

CC(C)NC(=N)c1ccc2nc(-c3ccc(Oc4ccc(-c5nc6ccc(C(=N)NC(C)C)cc6[nH]5)c(Br)c4)cc3)[nH]c2c1 [M, 2-(2-Bromo-4-(4-(6-(N-isopropylcarbamimidoyl)-1H-benzo[d]imidazol-2-yl)phenoxy)phenyl)-N-isopropyl-1H-benzo[d]imidazole-6-carboximidamide]
IC50 ([2]; trophozoites, n = 2, Table 6, read-out: Acanthamoeba castellanii IC50): 390 nM | IC50 [3, 10]: 3920 nM | MCC [4, 11]: 2.85 µM | MCC [5, 11]: 3.8 µM | MCC [6, 11]: 5.7 µM | IC50 ([8]; trophozoites, n = 2): 80 nM
